Results taken from paper PMC4899784, “LTP-1, a novel antimitotic agent and Stat3 inhibitor, inhibits human pancreatic carcinomas in vitro and in vivo” (Scientific Reports, 2016).

Assays:
[1] = target: T1, tubulin (α/β-tubulin heterodimer) (Sus scrofa, UniProt P02550+P02554); experiment: cell-free tubulin polymerization assay (absorbance at […] nm), enhancement; assay type: biochemical
T1 construct: gene TUBA1A; with α/β-tubulin heterodimer

[2] = target: T1, tubulin (α/β-tubulin heterodimer); experiment: cell-free tubulin polymerization assay (absorbance at […] nm), inhibition; assay type: biochemical

T1 sequence (P02550 whole entry): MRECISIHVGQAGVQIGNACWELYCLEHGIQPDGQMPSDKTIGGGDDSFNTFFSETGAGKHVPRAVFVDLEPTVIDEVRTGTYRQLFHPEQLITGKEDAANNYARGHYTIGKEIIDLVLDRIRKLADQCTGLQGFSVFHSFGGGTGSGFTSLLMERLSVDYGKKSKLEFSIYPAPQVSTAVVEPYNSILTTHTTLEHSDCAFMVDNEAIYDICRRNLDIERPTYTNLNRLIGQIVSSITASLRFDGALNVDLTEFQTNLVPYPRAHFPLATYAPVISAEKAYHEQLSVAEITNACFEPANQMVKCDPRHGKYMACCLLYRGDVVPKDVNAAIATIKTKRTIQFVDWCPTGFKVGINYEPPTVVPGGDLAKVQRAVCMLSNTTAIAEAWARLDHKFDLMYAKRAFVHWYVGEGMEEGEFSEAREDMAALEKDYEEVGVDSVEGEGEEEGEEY
T1 sequence (P02554 whole entry): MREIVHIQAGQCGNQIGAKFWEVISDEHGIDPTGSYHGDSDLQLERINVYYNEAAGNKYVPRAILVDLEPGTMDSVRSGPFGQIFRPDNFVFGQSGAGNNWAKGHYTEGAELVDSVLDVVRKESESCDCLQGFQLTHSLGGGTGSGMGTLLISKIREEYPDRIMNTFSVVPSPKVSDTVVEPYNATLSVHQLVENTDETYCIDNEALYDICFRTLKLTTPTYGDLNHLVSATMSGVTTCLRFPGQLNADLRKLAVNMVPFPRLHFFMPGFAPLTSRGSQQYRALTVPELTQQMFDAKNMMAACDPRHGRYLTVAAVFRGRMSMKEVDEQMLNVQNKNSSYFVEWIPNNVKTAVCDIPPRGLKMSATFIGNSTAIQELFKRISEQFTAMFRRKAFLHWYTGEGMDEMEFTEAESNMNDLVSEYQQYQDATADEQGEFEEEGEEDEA

Structure (SMILES)	cell-free tubulin polymerization assay (absorbance at 340 nm), enhancement [1]	cell-free tubulin polymerization assay (absorbance at 340 nm), inhibition [2]
CC(=O)O[C@H]1C(=O)[C@@]2(C)[C@H]([C@H](OC(=O)c3ccccc3)[C@]3(O)C[C@H](OC(=O)[C@H](O)[C@@H](NC(=O)c4ccccc4)c4ccccc4)C(C)=C1C3(C)C)[C@]1(OC(C)=O)CO[C@@H]1C[C@@H]2O [paclitaxel]	Paclitaxel enhanced microtubule assembly and mitotic spindle formation, whereas LTP-1 and vincristine disrupted microtubule formation (Fig. 2A)	
COc1ccc(S(=O)(=O)Nc2ccccc2-c2ccc(C#N)cc2)cc1 [LTP-1]		LTP-1 acted like vincristine, to inhibit tubulin polymerization in a concentration-dependent manner
